Patent US12195372B2 (priority 2018, dated 2025)
Like-named read-outs stand apart in the source and are kept apart here.

Details: room temperature (20-35° C.), atmospheric pressure

Substance: benzalkonium-perchlorate [BNZ-ClO4]
- ClO4 equilibrium conc. (matrix: deionized water): 0.20 mM
- ClO4 equilibrium conc. (matrix: ethanol): 231 mM
- ClO4 equilibrium conc. (matrix: salt water): 0.81 mM
